{"source": "patent US9205086B2", "about": "“Cancer therapy using a combination of a Hsp90 inhibitory compounds and a EGFR inhibitor” (Synta Pharmaceuticals Corp., priority 2010, dated 2015)", "key": {"[1]": {"assay": "In vivo pharmacokinetic (drug-drug interaction) study in SCID mice, plasma by HPLC", "parameters": "species or system mouse", "conditions": "for AUCINF / T½ / Cmax: plasma; for Cmax: female, CB17/Icr-Prkdc^scid/Crl (SCID), mouse", "text": "Six to eight week old, female CB17/Icr-Prkdc^scid/Crl (SCID) mice were obtained from Charles River Laboratories (Wilmington, Mass., USA). Animals were housed 4-5/cage in micro-isolators, with a 12 hr/12 hr light/dark cycle, acclimated for at least 1 week prior to use and fed normal laboratory chow ad libitum."}, "[2]": {"tested_on": "human NSCLC cell line HCC827", "assay": "SCID mouse xenograft, tumor growth (% T/C)", "type": "in vivo", "conditions": "for % T/C value: day 34", "experimental": "FBS was obtained from ATCC and all other reagents were obtained from Invitrogen Corp. (Carlsbad, Calif., USA). Cells that had been cryopreserved in liquid nitrogen were rapidly thawed at 37° C. and transferred to a tissue culture flask containing growth media and then incubated at 37° C. in a 5% CO2 incubator. […] Cultures were passaged by washing with 10 mL of room temperature phosphate buffered saline (PBS) and then disassociating cells by adding 5 mL 1× trypsin-EDTA and incubating at 37° C. until the cells detached from the surface of the flask. To inactivate the trypsin, 5 mL of growth media was added and then the contents of the flask were centrifuged to pellet the cells. The supernatant was aspirated and the cell pellet was resuspended in 10 mL of growth media and the cell number determined using a hemocytometer. Cells were seeded into 175 cm^2 flasks containing 50 mL of growth media and incubated at 37° C. in a 5% CO2 incubator."}, "[3]": {"tested_on": "RERF-LC-AI^IVP human lung tumor cells", "assay": "Nude mouse xenograft, tumor growth", "type": "in vivo", "conditions": "5 times per week, 15 doses", "experimental": "The human squamous non-small cell lung cancer cell line, RERF-LC-AI (RCB0444; S. Kyoizumi, et al., Cancer. Res. 45:3274-3281, 1985), was obtained from the Riken Cell Bank (Tsukuba, Ibaraki, Japan). The cell line was cultured in growth media prepared from 50% Dulbecco's Modified Eagle Medium (high glucose), 50% RPMI Media 1640, 10% fetal bovine serum (FBS), 1% 100× L-glutamine, 1% 100× penicillin-streptomycin, 1% 100× sodium pyruvate and 1% 100×MEM non-essential amino acids. FBS was obtained from American Type Culture Collection (Manassas, Va., USA) and all other reagents were obtained from Invitrogen Corp. (Carlsbad, Calif., USA). Approximately 4-5×10(6) cells that had been cryopreserved in liquid nitrogen were rapidly thawed at 37° C. and transferred to a 175 cm^2 tissue culture flask containing 50 ml of growth media and then incubated at 37° C. in a 5% CO2 incubator.\nThe growth media was replaced every 2-3 days until the flask became 90% confluent, typically in 5-7 days. […] The supernatant was aspirated and the cell pellet was resuspended in 10 ml of growth media and the cell number determined using a hemocytometer. […]\nStudies were conducted on animals between 8 and 12 weeks of age at implantation. […] Tumor volumes (V) were calculated by caliper measurement of the width (W), length (L) and thickness (T) of tumors using the following formula: V=0.5236×(L×W×T). […]"}, "JAK2 mutant JAK2V617F": {"biological_target": "JAK2 mutant JAK2V617F (Homo sapiens, UniProt O60674, V617F)", "sequence (O60674 whole entry V617F)": "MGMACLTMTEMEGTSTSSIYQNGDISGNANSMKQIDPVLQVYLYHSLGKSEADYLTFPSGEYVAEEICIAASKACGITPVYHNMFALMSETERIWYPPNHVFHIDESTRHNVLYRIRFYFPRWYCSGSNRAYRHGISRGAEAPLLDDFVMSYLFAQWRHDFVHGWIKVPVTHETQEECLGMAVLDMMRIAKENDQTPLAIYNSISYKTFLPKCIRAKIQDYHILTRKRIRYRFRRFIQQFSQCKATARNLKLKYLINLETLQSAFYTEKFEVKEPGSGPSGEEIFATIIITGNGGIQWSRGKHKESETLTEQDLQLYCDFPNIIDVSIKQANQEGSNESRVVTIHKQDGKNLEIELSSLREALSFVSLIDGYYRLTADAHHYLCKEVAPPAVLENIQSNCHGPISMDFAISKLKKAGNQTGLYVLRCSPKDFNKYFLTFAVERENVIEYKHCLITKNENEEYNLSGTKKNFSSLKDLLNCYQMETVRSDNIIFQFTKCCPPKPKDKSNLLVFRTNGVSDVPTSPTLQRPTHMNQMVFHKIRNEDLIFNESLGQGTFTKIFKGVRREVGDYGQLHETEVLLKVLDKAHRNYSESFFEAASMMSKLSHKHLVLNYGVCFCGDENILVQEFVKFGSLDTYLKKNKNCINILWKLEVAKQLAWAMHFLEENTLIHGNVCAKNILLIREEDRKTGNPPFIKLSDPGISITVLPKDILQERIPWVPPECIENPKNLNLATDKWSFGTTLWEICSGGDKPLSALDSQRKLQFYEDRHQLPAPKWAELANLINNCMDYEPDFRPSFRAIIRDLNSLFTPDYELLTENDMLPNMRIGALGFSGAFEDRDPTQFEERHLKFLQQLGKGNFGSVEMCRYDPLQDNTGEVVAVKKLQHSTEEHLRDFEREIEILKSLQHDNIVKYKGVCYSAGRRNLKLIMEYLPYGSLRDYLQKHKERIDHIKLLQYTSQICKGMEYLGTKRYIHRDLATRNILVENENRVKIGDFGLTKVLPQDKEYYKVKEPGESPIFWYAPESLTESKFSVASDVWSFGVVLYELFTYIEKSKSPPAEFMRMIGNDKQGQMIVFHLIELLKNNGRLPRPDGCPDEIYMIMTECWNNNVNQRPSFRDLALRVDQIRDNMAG", "conditions": "cited from earlier work"}, "[4]": {"assay": "Body weight change in nude mouse xenograft study", "type": "in vivo", "conditions": "200 mg/kg body weight i.p., 5 times per week, 15 doses, tumor-bearing nude mice", "experimental": "The Hsp90 inhibitor, 17-allylamino-17-demethoxygeldanamycin (17-AAG), was employed as a positive control (Albany Molecular Research, Albany, N.Y., USA). […] Animals were intraperitoneally (i.p.) injected with this solution at 10 ml per kg body weight on a schedule of 5 days per week (Monday, Tuesday, Wednesday, Thursday and Friday, with no dosing on Saturday and Sunday) for a total of 15 doses."}, "[5]": {"conditions": "50 mg/kg Compound 1 plus 25 mg/kg erlotinib HCl, SCID mice"}, "[6]": {"conditions": "analyte Compound 1, Compound 1 50 mg/kg + erlotinib HCl 25 mg/kg, single dose"}, "[7]": {"conditions": "analyte Compound 1, Compound 1 50 mg/kg alone, single i.v. dose"}, "[8]": {"conditions": "analyte erlotinib HCl, erlotinib HCl 25 mg/kg + Compound 1 50 mg/kg, single dose"}, "[9]": {"conditions": "analyte erlotinib HCl, erlotinib HCl 25 mg/kg alone, single dose"}}, "note": "Entries after “also recorded” stand apart in the source; their conditions may differ. Where a name gives a salt, the structure may show the parent alone."}
{"smiles": "CC(C)c1cc(-c2nnc(O)n2-c2ccc3c(ccn3C)c2)c(O)cc1O", "note": "[Compound 1, 3-(2,4-DIHYDROXY-5- ISOPROPYL-PHENYL)-4-(1- METHYL-INDOL-5-YL)-5- HYDROXY-[1,2,4]TRIAZOLE]", "values": [{"measurement": "effect of erlotinib HCl on plasma half-life, Cmax and total plasma exposure (AUCinf) of Compound 1", "setting": "[1]; [5]", "value": "no significant effect; also recorded: did not affect"}, {"measurement": "AUCINF", "setting": "[1]; [6]", "value": 36.0, "unit": "μMXHR"}, {"measurement": "T½", "setting": "[1]; [6]", "value": 4.5, "unit": "h"}, {"measurement": "AUCINF", "setting": "[1]; [7]", "value": 38.5, "unit": "μMXHR"}, {"measurement": "T½", "setting": "[1]; [7]", "value": 4.7, "unit": "h"}, {"measurement": "Cmax", "setting": "[1]; iv, 50 mg/kg, analyte Compound 1, Compound 1 50 mg/kg + erlotinib HCl 25 mg/kg, single dose", "value": 93.4, "unit": "µM"}, {"measurement": "Cmax", "setting": "[1]; iv, 50 mg/kg, analyte Compound 1, Compound 1 50 mg/kg alone, single i.v. dose", "value": 118, "unit": "µM"}, {"measurement": "HCC827 tumor growth in SCID mice", "setting": "[2]; Compound 1 50 mg/kg i.v. once per week, 3 doses, 50 mg/kg", "value": "moderately inhibited HCC827 tumor growth"}, {"measurement": "% T/C value", "setting": "[2]; Compound 1 50 mg/kg i.v. once per week", "value": 15, "unit": "%"}]}
{"smiles": "C=CCNC1=C2C[C@@H](C)C[C@H](OC)[C@H](O)[C@@H](C)/C=C(\\C)[C@H](OC(N)=O)[C@@H](OC)/C=C\\C=C(/C)C(=O)NC(=CC1=O)C2=O", "note": "[Compound 17-AAG, 17-allylamino-17-demethoxygeldanamycin, reference compound]", "values": [{"measurement": "growth rate of RERF-LC-AI^IVP human lung tumor cells in nude mice", "setting": "[3]; 75 mg/kg body weight i.p.", "value": "inhibited tumor growth; also recorded: decreased the growth rate"}]}
{"smiles": "C#Cc1cccc(Nc2ncnc3cc(OCCOC)c(OCCOC)cc23)c1", "note": "[erlotinib HCl]", "values": [{"measurement": "effect of Compound 1 on plasma half-life, Cmax and total plasma exposure (AUCinf) of erlotinib HCl", "setting": "[1]; [5]", "value": "little or no effect"}, {"measurement": "effect of Compound 1 on plasma half-life, Cmax and total plasma exposure (AUCinf) of erlotinib HCl", "setting": "[1]; 50 mg/kg Compound 1 plus 25 mg/kg erlotinib HCl, SCID mice, listed as erlotinib", "value": "little effect"}, {"measurement": "AUCINF", "setting": "[1]; [8]", "value": 39.0, "unit": "μMXHR"}, {"measurement": "T½", "setting": "[1]; [8]", "value": 2.8, "unit": "h"}, {"measurement": "AUCINF", "setting": "[1]; [9]", "value": 28.1, "unit": "μMXHR"}, {"measurement": "T½", "setting": "[1]; [9]", "value": 1.7, "unit": "h"}, {"measurement": "increase in total plasma exposure of erlotinib HCl", "setting": "[1]; combination with Compound 1 versus erlotinib HCl alone", "value": 39, "unit": "%"}, {"measurement": "Cmax", "setting": "[1]; intravenous, 25 mg/kg, analyte erlotinib HCl, erlotinib HCl 25 mg/kg + Compound 1 50 mg/kg, single dose", "value": 4.94, "unit": "µM"}, {"measurement": "Cmax", "setting": "[1]; intravenous, 25 mg/kg, analyte erlotinib HCl, erlotinib HCl 25 mg/kg alone, single dose", "value": 4.11, "unit": "µM"}, {"measurement": "% T/C value", "setting": "[2]; erlotinib HCl 25 mg/kg p.o. once per week", "value": 23, "unit": "%"}, {"measurement": "inhibition of JAK2V617F", "setting": "JAK2 mutant JAK2V617F", "value": "potently inhibits"}]}
{"smiles": "CCc1cc(-c2nnc(S)n2-c2ccc(OC)c3c2ccn3C(C)C)c(O)cc1O", "note": "[Compound 26, 3-(2,4-DIHYDROXY-5-ETHYL- PHENYL)-4-(1-ISOPROPYL-7- METHOXY-INDOL-4-YL)-5- MERCAPTO[1,2,4]TRIAZOLE]", "values": [{"measurement": "growth rate of RERF-LC-AI^IVP human lung tumor cells in nude mice", "setting": "[3]; 200 mg/kg body weight i.p.", "value": "inhibited tumor growth; also recorded: decreased the growth rate"}, {"measurement": "overt toxicity (effect on body weights)", "setting": "[4]", "value": "not associated with overt toxicity; also recorded: not overtly toxic"}]}
